Results as given in patent publication US20260355166A1, “2-SUBSTITUTED PIPERIDINE DERIVATIVES, PREPARATION METHODS AND MEDICINAL USES THEREOF” (JIANGSU HANSOH PHARMACEUTICAL GROUP CO., LTD., priority 2022, published 2026).

Columns and labels:
human Factor B [1] = target: T1, human Factor B (Homo sapiens, UniProt P00751); assay: Factor B Binding Assay by TR-FRET; details: recombinant human Factor B catalytic domain 10 nM, 100 nM tracer, 1 h
T1 construct: Recombinant human Factor B catalytic domain (a.a. 470-764, C-terminal his-tagged, produced in-house); made in house
Description: • 1. Recombinant human Factor B catalytic domain (a.a. 470-764, C-terminal his-tagged, produced in-house) • 2. 5× Kinase Buffer A (Thermo Fisher, CAT #PV3189) • 3. LANCE Eu-W1024 Anti-6×His Antibody (PerkinElmer, CAT #AD0401) • 4. Probe (TRFRET_tool 2, reported in WO 2015/009616)
[drawing 252] • 5. DMSO (Thermo Fisher Scientific) • 6. Compounds-10 mM stock in DMSO • 7. Victor Nivo multimode plate reader (PerkinElmer) • 8. OptiPlate-384, white opaque 384-well microplate (PerkinElmer, CAT #6007290)
Factor B binding affinity of each compound tested was determined using a time-resolved fluorescence resonance energy transfer (TR-FRET) technology. 10 nM recombinant his-tagged Factor B catalytic domain, varying concentrations of inhibitors, 4 nM LANCE Eu-W1024 Anti-6×His Antibody and 100 nM TRFRET_tool2 tracer was incubated in 1× Kinase Buffer A for 1 h. Measurement was performed in a reaction volume of 15 μL by adding 5 μL of the test compound, 5 μL of Factor B/antibody mixture and 5 μL of tracer into white opaque 384-well assay plates. The TR-FRET signal was read on a plate reader with an excitation wavelength of 340 nm and detection wavelengths of 615 and 665 nm. Binding affinity was determined for each compound by measuring TR-FRET signal at various concentrations of compound and plotting the relative fluorescence Emission Ratio (665 nm/615 nm) against the inhibitor concentration to estimate the IC50 from [Compound] vs Emission Ratio using the four parameters dose-response inhibition curve with a variable slope model in GraphPad Prism.
The binding affinity to recombinant Factor B catalytic domain of the compounds of the present invention was determined by the above assay, and IC50 values (nM) are shown in the following table.

human Factor B [2] = target: T1, human Factor B; assay: Target Residence Time of Factor B Inhibitors Determined by Surface Plasmon Resonance (SPR); format: binding; details: for Kd: immobilized recombinant human Factor B catalytic domain, room temperature; for t1/2 (binding half-life): t1/2=ln 2/kd; for residence time: tR=1/kd
Source text: • 1. Recombinant human Factor B catalytic domain (a. a. 470-764, C-terminal his-tagged, produced in-house) • 2. PBS-P+ Buffer 10× (Cytiva, CAT #28995084) • 3. Series S Sensor Chip NTA (Cytiva, CAT #BR100532) • 4. Amine Coupling Kit (Cytiva, CAT #BR100050) • 5. DMSO (Millipore Sigma, CAT #34869-1L) • 6. Greiner 96 well plates, polypropylene (Sigma-Aldrich, CAT #M7310-100EA) • 7. Microplate Foil, 96-well (Cytiva, CAT #28975816) • 8. Biacore 8k (Cytiva)
Biacore 8k instrument was primed using 1×PBS-P+ buffer before docking a Cytiva NTA chip. Recombinant human Factor B catalytic domain were immobilized on a NTA chip to a level of about 5000 resonance units (RU) using 1×PBS-P+ buffer [[…] phosphate buffer with 2.7 mM KCl, 137 mM NaCl, and 0.05% (v/v) Tween-20]. The protein ligand was further crosslinked to sensorchip surface by amine coupling kit. Immobilization and binding experiment were performed at room temperature.
After changing buffer to 1×PBS-P+ buffer with 2% (v/v) DMSO, a pre-run was performed for a period of at least 30 min at a flow rate of 30 μl/min to obtain a stable surface. The kinetic constants of the compounds were determined by single-cycle kinetics with six consecutive injections (or multi-cycle kinetics with eight consecutive injections) with an increasing compound concentration in ranges of 0.8-200 nM, 12.5-400 nM, 4.1-1,000 nM or 41-10,000 nM depending on the potency. Single-cycle kinetics experiments were performed with an association time of 60 s per concentration and a dissociation time of 300 s (or a dissociation time of 120 s for multi-cycle kinetics experiments). A flow rate of 30 μl/min was used. A blank run with the same conditions was performed before the compound was injected.
The SPR sensorgrams were analyzed with Biacore Insight Evaluation Software by using a method of double referencing. The resulting curve was fitted with a 1:1 binding model. The kinetic constants (ka, kd, KD) of replicates were averaged. Residence time (tR) was calculated from the dissociation constant kd with the formula tR=1/kd. Binding half-life (t1/2) was calculated from the dissociation constant kd with the formula t1/2=ln 2/kd

[3] = tested on: MAC (Membrane Attack Complex) formation; assay: Inhibition of Human MAC Deposition (AP deposition assay, LPS activation, ELISA of C5b-9); format: biochemical; details: human serum, LPS coated plates, GVB buffer with MgCl2 and EGTA, C5b-9 detection
Description: To quantify the inhibitory effects of compounds on complement protein deposition following LPS activation of the alternative complement pathway, the AP deposition assay was employed. Test concentration of the compounds started at 11.1 μM or 3.70 µM and were diluted 3-fold in DMSO to produce 8 concentration points, with each concentration tested in technical triplicates. Human serum was combined with test compounds in GVB buffer containing 5 mM MgCl2 10 mM EGTA, and was added to LPS coated black Maxisorp plates. After a period of incubation, the plate was inverted, and ELISA detection of complement proteins bound to LPS was performed. A primary antibody that detected human C5b-9 was used, followed by a compatible HRP conjugated secondary antibody. Peroxidase activity was detected using the Quantablu Fluorogenic Peroxidase substrate kit and fluorescence was measured at 340 nm/435 nm using the i3x plate reader to determine the quantity of alternative pathway complement protein deposition.

[4] = tested on: rabbit reticulocyte hemolysis; assay: Inhibition of AP Dependent Hemolysis (rabbit cells in human serum); format: cell-based, human serum; rabbit erythrocytes; details: Oryctolagus cuniculus, GVB buffer with MgCl2 and EGTA, 37 °C, OD405
Description: To quantify the inhibitory effects of compounds on the hemolytic activity of the alternative complement pathway, the AP hemolytic assay was employed. Test concentration of the compounds started at 100 μM and were diluted 3-fold in DMSO to produce 8-11 concentration points, with each concentration tested in technical triplicates. Human serum was added to rabbit reticulocytes in a solution of GVB buffer with MgCl2 and EGTA. After a period of incubation at 37 °C, spontaneous lysis of rabbit erythrocytes due to serum AP complement activity was quantified using OD405 absorbance, measured using the i3x plate reader.

[5] = Pharmacokinetic Studies in Rats; format: in vivo, brown Norway rats; details: plasma, rat
Description: Three-month-old brown Norway rats were administered the Example compound intravenously (0.5 mg/kg dose, formulation: 10% 1,2-Propanediol+25% (20% solutol HS 15 in water)+65% phosphate buffered saline at 0.1 mg/mL) and via oral gavage at 2 mg/kg dose as a clear solution (0.5% MC+0.5% Tween 80 in water at 1 mg/mL). Plasma was collected from rats per time point at 0.25, 0.5, 1, 6, and 24 h after administration. The concentrations of the test article were measured in plasma by HPLC-MS/MS, two individual plasma samples at each time point. Chromatographic separation was carried out on Waters BEH C18 Column (2.1×50 mm, 1.7 μm) column (MAC-MOD Analytical, Chadds Ford, PA), using a gradient elution method with water and acetonitrile, both containing 0.025% formic acid-1 mM NH4OAc. Mass spectrometric measurements in positive electrospray ionization were directed at quantifying the mass transition with [M+H]^+ as the precursor ion on API6500, triple quadruple mass spectrometer (Sciex, Framingham, MA). The relevant pharmacokinetic parameters were estimated using noncompartmental methods using WinNonlin (Enterprise, version 8.2).

T1 sequence (P00751 470-764): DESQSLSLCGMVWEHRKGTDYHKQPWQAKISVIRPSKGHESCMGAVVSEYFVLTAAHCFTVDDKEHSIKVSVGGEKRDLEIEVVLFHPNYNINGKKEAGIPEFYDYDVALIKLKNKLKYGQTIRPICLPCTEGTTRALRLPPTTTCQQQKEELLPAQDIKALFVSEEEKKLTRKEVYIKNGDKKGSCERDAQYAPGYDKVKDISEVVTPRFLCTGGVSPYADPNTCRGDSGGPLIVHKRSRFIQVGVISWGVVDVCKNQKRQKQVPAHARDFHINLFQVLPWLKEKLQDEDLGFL

IC50 (human Factor B [1]) [µM] | Kd (human Factor B [2]) [µM] | t1/2 (binding half-life) (human Factor B [2]) [min] | residence time (human Factor B [2]) [min] | IC50 [3] [µM] | bioavailability ([5]; 2 mg/kg, 0.5 mpk IV and 2 mpk PO) [%] | clearance ([5]; 0.5 mg/kg IV, read-out: 0.5 MPK IV arm CL) [L/h/kg] | half-life ([5]; 2 mg/kg PO, read-out: T½ (h) - 2 MPK PO (converted)) [h] | AUC(0-t) ([5]; 0.5 mpk IV and 2 mpk PO (arm not printed in this column head), read-out: Plasma AUC0-last) [µM·h] | SMILES | IC50 [4] [µM]
0.00105 | 0.0009 | 11.8 | 16.9 | 0.147 | 56 | 0.078 | 8.5 | 25.4 | COc1cc(C)c2[nH]ccc2c1CN1CCC2(CC(F)(F)C2)CC12CCc1cc(C(=O)O)ccc12 (single isomer, unassigned) [Example 1 isomer 1, 3,3-difluoro-1′-((5-methoxy-7-methyl-1H-indol-4-yl)methyl)-2″,3″-dihydrodispiro[cyclobutane-1,4′-piperidine-2′,1″-indene]-5″-carboxylic acid] | 0.22
0.00201 | 0.0022 | 13.6 | 19.6 | 0.129 | – | – | – | – | COc1cc(C)c2[nH]ccc2c1CN1CCC2(CC(F)(F)C2)C[C@]12CCCc1cc(C(=O)O)ccc12 (single isomer, unassigned) [Example 2 isomer 1] | 0.283
0.00114 | 0.00173 | 12.6 | 18.2 | 0.193 | – | – | – | – | COc1cc(C)c2[nH]ccc2c1CN1CCC2(CC(F)(F)C2)C[C@@]1(C)c1ccc(C(=O)O)cc1 (single isomer, unassigned) [Example 3 isomer 1] | 0.252
